Source: US4450269A, “Mono-5-substituted-3-chloro-4H-1,2,6-thiadiazin-4-one antifungal agents” (FMC Corporation, priority 1980, dated 1984)

Test system: Sclerotinia fructicola
Assay: Mycelial growth test
Type: cell-based
Conditions: Sclerotinia, 72 h, SF, read-out: Percent Fungus Growth Inhibition
Description: | SF = Sclerotinia fructicola

CC(=O)Nc1ccccc1Oc1nsnc(Cl)c1=O [Compound 43, 3-[(2-acetylamino)-phenoxy]-5-chloro-4H--1,2,6-thiadiazin-4-one]
inhibition at 5 ppm: 0%
inhibition at 10 ppm: 0%
inhibition at 20 ppm: 17%
inhibition at 40 ppm: 22%

O=c1c(Cl)nsnc1Oc1cccc(C(F)(F)F)c1 [Compound 44, 3-chloro-5-[(3-trifluoromethyl)phenoxy]-4H--1,2,6-thiadiazin-4-one]
inhibition at 5 ppm: 76%
inhibition at 10 ppm: 100%
inhibition at 20 ppm: 100%
inhibition at 40 ppm: 100%

O=C(O)Cc1ccccc1Oc1nsnc(Cl)c1=O [Compound 45, 3-(2-carboxymethylphenoxy)-5-chloro-4H--1,2,6-thiadiazin-4-one]
inhibition at 5 ppm: 9%
inhibition at 10 ppm: 3%
inhibition at 20 ppm: 38%
inhibition at 40 ppm: 59%

N#CCc1ccc(Oc2nsnc(Cl)c2=O)cc1 [Compound 46, 3-chloro-5-[(4-cyanomethyl)-phenoxy]4H--1,2,6-thiadiazin-4-one]
inhibition at 5 ppm: 19%
inhibition at 10 ppm: 76%
inhibition at 20 ppm: 81%
inhibition at 40 ppm: 100%

CC(=O)c1ccc(Oc2nsnc(Cl)c2=O)cc1 [Compound 47, 3-(4-acetylphenoxy)-5-chloro-4H--1,2,6-thiadiazin-4-one]
inhibition at 5 ppm: 82%
inhibition at 10 ppm: 82%
inhibition at 20 ppm: 100%
inhibition at 40 ppm: 100%

CC(=O)c1cccc(Oc2nsnc(Cl)c2=O)c1 [Compound 48, 3-(3-acetylphenoxy)-5-chloro-4H--1,2,6-thiadiazin-4-one]
inhibition at 5 ppm: 82%
inhibition at 10 ppm: 88%
inhibition at 20 ppm: 94%
inhibition at 40 ppm: 100%

CC(=O)c1ccccc1Oc1nsnc(Cl)c1=O [Compound 49, 3-(2-acetylphenoxy)-5-chloro-4H--1,2,6-thiadiazin-4-one]
inhibition at 5 ppm: 14%
inhibition at 10 ppm: 33%
inhibition at 20 ppm: 75%
inhibition at 40 ppm: 100%

O=C(O)c1ccc(Oc2nsnc(Cl)c2=O)cc1 [Compound 50, 3-(4-carboxyphenoxy)-5-chloro-4H--1,2,6-thiadiazin-4-one]
inhibition at 5 ppm: 59%
inhibition at 10 ppm: 47%
inhibition at 20 ppm: 94%
inhibition at 40 ppm: 100%

COc1ccc(Cl)c(Oc2nsnc(Cl)c2=O)c1 [Compound 51, 3-chloro-5-[(2-chloro-5-methoxy)phenoxy]-4H--1,2,6-thiadiazin-4-one]
inhibition at 5 ppm: 69%
inhibition at 10 ppm: 92%
inhibition at 20 ppm: 92%
inhibition at 40 ppm: 100%

O=c1c(Cl)nsnc1Oc1ccc([N+](=O)[O-])cc1Cl [Compound 53, 3-chloro-5-(2-chloro-4-nitrophenoxy)-4H--1,2,6-thiadiazin-4-one]
inhibition at 5 ppm: 63%
inhibition at 10 ppm: 89%
inhibition at 20 ppm: 100%
inhibition at 40 ppm: 100%

Cc1cc(Oc2nsnc(Cl)c2=O)ccc1Cl [Compound 54, 3-chloro-5-(4-chloro-3-methylphenoxy)-4H--1,2,6-thiadiazin-4-one]
inhibition at 5 ppm: 49%
inhibition at 10 ppm: 50%
inhibition at 20 ppm: 53%
inhibition at 40 ppm: 64%

Cc1cc(Cl)ccc1Oc1nsnc(Cl)c1=O [Compound 55, 3-chloro-5-(4-chloro-2-methylphenoxy)-4H--1,2,6-thiadiazin-4-one]
inhibition at 5 ppm: 42%
inhibition at 10 ppm: 50%
inhibition at 20 ppm: 56%
inhibition at 40 ppm: 61%

Cc1ccc(Cl)c(Oc2nsnc(Cl)c2=O)c1 [Compound 56, 3-chloro-5-[(2-chloro-5-methyl)phenoxy]-4H--1,2,6-thiadiazin-4-one]
inhibition at 5 ppm: 69%
inhibition at 10 ppm: 78%
inhibition at 20 ppm: 100%
inhibition at 40 ppm: 100%

Cc1ccc(Oc2nsnc(Cl)c2=O)c(Br)c1 [Compound 57, 3-[(2-bromo-4-methyl)-phenoxy]-5-chloro-4H--1,2,6-thiadiazin-4-one]
inhibition at 5 ppm: 68%
inhibition at 10 ppm: 82%
inhibition at 20 ppm: 100%
inhibition at 40 ppm: 100%

Cc1cc(Cl)c(Oc2nsnc(Cl)c2=O)cc1C [Compound 58, 3-chloro-5-[(2-chloro-4,5-dimethyl)phenoxy]-4H--1,2,6-thiadiazin-4-one]
inhibition at 5 ppm: 56%
inhibition at 10 ppm: 65%
inhibition at 20 ppm: 68%
inhibition at 40 ppm: 71%

Cc1cc(Oc2nsnc(Cl)c2=O)cc(C)c1Cl [Compound 59, 3-chloro-5-[(4-chloro-3,5-dimethyl)phenoxy]-4H--1,2,6-thiadiazin-4-one]
inhibition at 5 ppm: 71%
inhibition at 10 ppm: 68%
inhibition at 20 ppm: 59%
inhibition at 40 ppm: 74%

Cc1cc(Oc2nsnc(Cl)c2=O)cc(C)c1Br [Compound 60, 3-[(4-bromo-3,5-dimethyl)-phenoxy]-5-chloro-4H--1,2,6-thiadiazin-4-one]
inhibition at 5 ppm: 56%
inhibition at 10 ppm: 71%
inhibition at 20 ppm: 65%
inhibition at 40 ppm: 71%
